Common to all, as to assay type: cell-based, human
The subject of experiment [1] is hESC-derived neuroepithelial cells. Description: Olig2 induction from hESC-derived neuroepithelial cells (immunostaining). Conditions: for Olig2-expressing progenitors: treatment during Olig2 induction, SHH 100 ng/ml, purmorphamine 1 μM, day 35. Here is the method: hESCs (line H1 and H9; WiCell Research Institute; Madison, Wis.) were cultured on irradiated mouse embryonic fibroblasts (MEF) in a 6-well plate. […] Differentiated colonies were marked and removed physically with a pipette tip and the stem cell state was periodically monitored by expression of Oct4 and SSEA4.
hESCs were then differentiated to primitive neuroepithelial cells in an adherent colony culture for 10 days in a neural induction medium consisting of DMEM/F12, N2 supplement and non-essential amino acids, as detailed elsewhere. […] Chem. Soc. […] The neuroepithelial colonies were gently blown off the surface by a pipette and grown as floating clusters in suspension in the same medium.
(§1) Immuno-fluorescent staining on coverslip cultures and free-floating brain sections was described previously. […] Specificity of the antibodies was first tested in embryonic brain and spinal cord tissues. Li et al., supra; and Pankratz et al., supra. Negative controls without primary and secondary antibody were performed in all experiments to monitor non-specific staining. The stained samples were visualized with a Nikon TE600 fluorescent scope equipped with a SPOT camera and software (Diagnostic Instruments; Sterling Heights, Mich.), as well as a Nikon C1 laser scanning confocal microscope.
(§2) At least three coverslips were counted for every group. The experiments were repeated three times with different batches of cells.

Experiment [2] deals with hESC-derived Olig2 progenitors. The experiment in a line: Differentiation of Olig2 progenitors to OPCs in glial differentiation medium (marker immunostaining). Conditions: for OLIG2/PDGFRa double positive OPCs: day 100, treatment from Olig2 induction; for PDGFRα+ OPCs (in words): treated between days 24 and 35, later OPC differentiation; for timing of OPC differentiation (PDGFRα, NG2, Sox10): added to Olig2/Nkx2.2 progenitors in glial differentiation medium. Here is the method:
Olig2-expressing progenitors usually appeared around day 24 (Li et al., supra). […] FGF2 (R&D; 10 ng/ml) and/or EGF (Sigma; 10 ng/ml) was added to examine their effect on motor neuron differentiation and progenitor proliferation.
From the 5th week of differentiation, FGF2 was replaced with a cocktail of cytokines consisting of PDGFAA, IGF1 and NT3 (all at 10 ng/ml). Du Z, et al., “Induced expression of Olig2 is sufficient for oligodendrocyte specification but not for motoneuron specification and astrocyte repression,” Mol. Cellular Neurosci. […] SHH or purmorphamine was removed around 10 weeks when PDGFRα+ OPCs appeared. The cultures were fed every other day and the progenitor clusters were broken into smaller pieces with polished glass Pasteur pipette every week.
as §1, §2

The subject of experiment [3] is hESC-derived Olig2 progenitors. The experiment in a line: Olig2/Nkx2.2 co-expression in Olig2 progenitors (immunostaining). Conditions: for OLIG2+/NKX2.2+ population: gliogenic progenitors treated day 35 to 50 (purmorphamine 1 uM, cyclopamine 5 μM), examined day 50; for cells expressing Olig2 and/or Nkx2.2: treated day 24 to 35, examined day 35. An excerpt:
(§3) Olig2-expressing progenitors usually appeared around day 24 (Li et al., supra). The culture was then switched to a glial differentiation medium (modified Bottenstein-Sato medium; see, Bottenstein J, et al., “The growth of cells in serum-free hormone-supplemented media,” Methods Enzymol. 58:94-109 (1979); and Bottenstein J, et al., “Selective survival of neurons from chick embryo sensory ganglionic dissociates utilizing serum-free supplemented medium,” Exp. Cell Res. 125:183-190 (1980)) consisting of DMEM, N1 supplement (Sigma; St. Louis, Mo.), T3 (Sigma); 60 ng/ml), biotin (Sigma; 100 ng/ml) and cAMP (Sigma; 1 uM). FGF2 (R&D; 10 ng/ml) and/or EGF (Sigma; 10 ng/ml) was added to examine their effect on motor neuron differentiation and progenitor proliferation.
(§4) Immuno-fluorescent staining on coverslip cultures and free-floating brain sections was described previously. Zhang et al. (2001), supra; Pankratz et al., supra. The following primary antibodies were used in the present study: anti-Olig2 (goat IgG, 1:500, sc-19969, Santa Cruz Biotechnology; Santa Cruz, Calif.), anti-βIII-tubulin (TuJ1, mlgG 1:5000, Sigma), anti-GFAP (mlgG 1:5000, Chemicon), anti-NG2 (mlgG 1:400, BD Pharmingen), anti-HB9 (mlgG 1:50, DSHB, Iowa City, Iowa), anti-PDGFRα (rat IgG 1:1000, gift from Dr. Stallcup WILLIAM STALLCUP, Burnham Institute for Medical Research, burnham.org/default.asp?contentID=203 on the World Wide Web) (Nishiyama A, et al., “Colocalization of NG2 proteoglycan and PDGF alpha-receptor on O2A progenitor cells in the developing rat brain,” J. Neurosci. Res. 43:299-314 (1996)), anti-O4 (1:50, mouse IgM, Chemincon MAB345), MBP (1:500, rabbit IgG, Chemicon), anti-human nuclei (1:200, mouse IgG, Chemicon). Specificity of the antibodies was first tested in embryonic brain and spinal cord tissues. Li et al., supra; and Pankratz et al., supra. Negative controls without primary and secondary antibody were performed in all experiments to monitor non-specific staining. The stained samples were visualized with a Nikon TE600 fluorescent scope equipped with a SPOT camera and software (Diagnostic Instruments; Sterling Heights, Mich.), as well as a Nikon C1 laser scanning confocal microscope.
(§5) For quantification of stained cell populations, optical fields were randomly selected with fixed ROI (region of interest) frame using cell counter plugin of ImageJ (Abramoff M, et al., “Image Processing with ImageJ,” Biophoton. Int. 11:36-42 (2004)) from independent coverslips of the same group. At least three coverslips were counted for every group. The experiments were repeated three times with different batches of cells. Statistical analyses were performed using ANOVA with R (R_Development_Core_Team, 2007).
Continued SHH signaling was required for maintaining gliogenic Olig2 progenitors. Gliogenic Olig2 progenitor cultures (day 35) were grown in the presence or absence of purmorphamine (1 uM), or the presence of cyclopamine (5 μM) for 2 weeks. […] Thus, SHH signaling was continuously needed to maintain the Olig2 progenitors, even though exogenous SHH is now not necessary.

For experiment [4], the system named is hESC-derived Olig2 progenitors. The experiment in a line: Motor neuron differentiation of Olig2 progenitors (HB9 and Olig2 immunostaining). The conditions noted are these: for cells expressing HB9: day 35, cultures with purmorphamine from day 24, with or without FGF2 10 ng/ml; for HB9 expression: day 24 to 35, combined with purmorphamine, FGF2 or EGF 10 ng/ml.
From the text: as §3, §4, §5
FGF2 (10 ng/ml) was applied to the culture alongside purmorphamine at day 24 (following the appearance of Olig2, but before the differentiation of HB9+ motor neurons). […] Li et al., supra; and Li X & Zhang S, “In vitro differentiation of neural precursors from human embryonic stem cells,” Methods Mol. Biol. 331:169-177 (2006). […] Accordingly, a much larger population (55%) of Olig2 cells was present when FGF2 was present early on. RT-PCR analyses confirmed that Ngn2 and HB9 expression was repressed. Cultures with FGF2 alone (without the presence of SHH or purmorphamine) had few, if any, HB9+ motor neurons or Olig2-expressing progenitors (see FIGS. 4B, C).

The subject of experiment [5] is hESC-derived Olig2 progenitors. The experiment in a line: Progenitor proliferation (Ki67 positive cells). The conditions noted are these: 10 ng/ml, day 24 to 35.
From the text: as §3
To determine pro-proliferation effects of FGF2, we used another mitogen, EGF, as a control. […] Thus, FGF2 appeared to increase the Olig2+ cells by preventing the differentiation of Olig2 progenitors to motor neurons.

For experiment [6], the system named is hESC-derived Olig2 progenitors. Description: RT-PCR gene expression in progenitor cultures.
Experiment [7] has as its system hESC-derived Olig2 progenitors. Description: FACS analysis of OLIG2+ population. Conditions: day 50, with FGF2 versus without FGF2. (Flow cytometry measures light scatter and fluorescence of single cells or particles in a stream.)
In experiment [8] the test system is hESC-derived Olig2 progenitors. Description: Differentiation of Olig2 progenitors to OPCs in glial differentiation medium (marker immunostaining). The conditions noted are these: progenitors cultured in the presence of FGF2 throughout; 13-14 weeks.

“Also recorded” adds a separate entry of the source.

Data on six molecules can be found in US8658424B2, “Myelinating oligodendrocyte precursor populations” (Wisconsin Alumni Research Foundation, priority 2007, dated 2014).

As to `CC1=C2C[C@H]3[C@@H](CC=C4C[C@@H](O)CC[C@@]43C)[C@@H]2CC[C@]12O[C@@H]1C[C@H](C)CN[C@H]1[C@H]2C` [cyclopamine], the Olig2-expressing progenitors entry in experiment [1] is “rarely; also recorded: blocked Olig2 transcription; also recorded: near absence of Olig2 cells”. Also, in experiment [2], the “OLIG2/PDGFRa double positive OPCs” value is reported as “rarely; also recorded: lack of OPCs” and the “PDGFRα+ OPCs (in words)” value was “few OPCs were present”. In addition, in experiment [3], the “OLIG2+/NKX2.2+ population” value is “not and few cells expressing Olig2 and/or Nkx2.2”; the “cells expressing Olig2 and/or Nkx2.2” value was “near complete lack of cells expressing Olig2 and/or Nkx2.2”.
With `c1ccc2c(Oc3nc(Nc4ccc(N5CCOCC5)cc4)c4ncn(C5CCCCC5)c4n3)cccc2c1` [purmorphamine], in experiment [1], the “concentration that produced the highest proportion of Olig2 progenitors” value is 1 µM and the Olig2-expressing progenitors entry was “present”. Moreover, the “induction of Olig2 compared with SHH” value in experiment [1] (purmorphamine 1 uM replacing SHH, p<0.0001) was “earlier and more potent induction of Olig2”. The “earlier induction of Olig2 expression than SHH” value in experiment [1] (purmorphamine versus SHH) lay within 4 to 5 days. Further, in experiment [2], the “timing of OPC differentiation (PDGFRα, NG2, Sox10)” value is on record as “did not speed up the differentiation of OPCs” and the “OLIG2/PDGFRa double positive OPCs” value is given as “present”. In experiment [2] (treated day 35 to 50, examined day 100), the “PDGFRα+ OPCs” value is “appear”. Besides, in experiment [3], the “OLIG2+/NKX2.2+ population” value was “present” and the “cells expressing Olig2 and/or Nkx2.2” value is on record as “co-express; also recorded: sustained Olig2 progenitor population”. Further, the “more Olig2/Nkx2.2 double positive cells” value in experiment [3] (purmorphamine 1 uM day 35 to 50, day 50, printed comparator: cultures with cyclopamine) was “about 40%”. In experiment [4], the “cells expressing HB9” value was 40-50%.
Take “EGF: mitogen used as a control for FGF2 (Sigma)”: the “timing of OPC differentiation (PDGFRα, NG2, Sox10)” value in experiment [2] is reported as “did not speed up the differentiation of OPCs”. The “proportion of Olig2 positive cells” value in experiment [4] (EGF 10 ng/ml, day 24 to 35) is listed as “did not increase”. The HB9 expression entry in experiment [4] is reported as “moderately decreases”. Besides, the “proportion of Ki67 positive cells” value in experiment [5] is “does not selectively alter; also recorded: did not increase”.
In the case of FGF2: Fibroblast Growth Factor 2 (R&D), the total cells generated result in experiment [2] (FGF2 with purmorphamine days 24-35 versus purmorphamine alone) is recorded as “substantially more total cells”. For the same molecule, in experiment [2], the “timing of OPC differentiation (PDGFRα, NG2, Sox10)” value was “did not speed up the differentiation of OPCs” and the “PDGFRα+ OPCs (in words)” value was “similar”. Besides, the Nkx2.2 progenitors entry in experiment [3] (FGF2 continued from day 35, 7th week) was “did not appear to change significantly”. In experiment [3] (FGF2 continued from day 35, examined day 50 (7th week)), the “Olig2/Nkx2.2 double positive cells” value is listed as “decreased; also recorded: few double positive cells”. The “population of Olig2 cells” value in experiment [4] (FGF2 10 ng/ml with purmorphamine from day 24, day 35) was determined as 55%. Moreover, in experiment [4] (FGF2 alone, without SHH or purmorphamine), the “HB9+ motor neurons or Olig2-expressing progenitors” value was “few, if any”. In addition, the HB9-expressing cells entry in experiment [4] (FGF2 removed at day 35 and RA added back, one to two weeks later) is recorded as “hardly any”. Also, in experiment [4], the HB9 expression entry is given as “blocks HB9 expression; also recorded: nearly completely blocked HB9 expression” and the “cells expressing HB9” value is reported as “less than 5%”. For the same molecule, the “increase of OLIG2+ cells” value in experiment [4] (with presence of Pur, 12 days from day 24) is “about 50%”. Moreover, in experiment [5], the “proportion of Ki67 positive cells” value is reported as “does not selectively alter”. Moreover, the “Ngn2 and HB9 expression (RT-PCR)” value in experiment [6] (FGF2 10 ng/ml with purmorphamine, day 24 to 35) is reported as “repressed”. The “expression of NFIA (RT-PCR)” value in experiment [6] (FGF2 from day 35) was “promoted the expression of NFIA”. For the same molecule, in experiment [6] (FGF2 from day 35 in presence of purmorphamine), the “expression of Olig2 (RT-PCR)” value is “compromises the effect of purmorphamine to maintain expression of Olig2”. Moreover, in experiment [6] (day 50, FGF2 from day 35), the “SHH transcript (quantitative RT-PCR)” value was “decreases SHH by half”; the “transcription of GLI2 and GLI3 (quantitative RT-PCR)” value is given as “increases”. In addition, the “decrease in the OLIG2+ population (FACS)” value in experiment [7] is reported as 10%. Further, in experiment [8], the “GFAP+ astrocytes” value amounted to 35%, the “PDGFRa+ OPCs” value amounted to 4% and the “βIII tubulin+ neurons” value is 53%.
As for sonic hedgehog [SHH], in experiment [1] (one week following SHH treatment), the “onset of Olig2 expression” value is ~23 day of differentiation. In addition, the Olig2-expressing progenitors result in experiment [1] was “present”. Further, in experiment [2], the “timing of OPC differentiation (PDGFRα, NG2, Sox10)” value is recorded as “did not speed up the differentiation of OPCs” and the “OLIG2/PDGFRa double positive OPCs” value is recorded as “present”. Moreover, the “cells expressing Olig2 and/or Nkx2.2” value in experiment [3] was “co-express; also recorded: sustained Olig2 progenitor population”.

B1: Noggin: a BMP antagonist known to promote OPC differentiation (protein, UniProt Q13253 28-232, looked up)
Noggin: QHYLHIRPAPSDNLPLVDLIEHPDPIFDPKEKDLNETLLRSLLGGHYDPGFMATSPPEDRPGGGGGAAGGAEDLAELDQLLRQRPSGAMPSEIKGLEFSEGLAQGKKQRLSKKLRRKLQMWLWSQTFCPVLYAWNDLGSRFWPRYVKVGSCFSKRSCSVPEGMVCKPSKSVHLTVLRWRCQRRGGQRCGWIPIQYPIISECKCSC
Take B1: the “timing of OPC differentiation” value in experiment [2] (Noggin 100 ng/ml at day 35 together with SHH 100 ng/ml) was “did not result in earlier differentiation of OPCs”.
